Laboratory results from patent US8097266B2, “Solvent systems for pour-on formulations for combating parasites” (Merial Limited, priority 2007, dated 2012).

How the values were obtained:
[1] = assay type: physicochemical
Description: In addition to examination of solutions for clarity, aged samples (2 months@ 25° C.) were examined chromatographically for degradation.
In order to elucidate possible degradation components, solutions of active components were subjected to forced degradation conditions of acid, base, and peroxide at elevated temperature.
Samples containing ivermectin and clorsulon were prepared in acetonitrile and subjected to acid (a few drops of phosphoric acid), alkaline (a few drops of 1N sodium hydroxide) and peroxide (a small amount of t-butyl peroxide or hydrogen peroxide) degradation conditions. Samples were first analyzed for signs of degradation after a few days at ambient temperature. If, after this time there were no signs of degradation the samples were further ‘stressed’ by storage at 40° C.

[2] = Preliminary stability of Table 3 formulations at 50° C.; assay type: physicochemical; details: addition of glycerol formal
Description: Larger batches (100 mL) of formulations were made for use in preliminary stability studies.
Eprinomectin was also included in the formulation studies at the same end product concentration as ivermectin (0.5% w/v). The formulations shown in Table 3 were monitored for stability.
In order to evaluate the stability of formulations, analytical methods (described below) were developed to assay each active ingredient and monitor any degradation.
This HPLC assay was developed as an external standardization method which involves volumetric dilution of an accurately weighed amount of standard material and sample. The chromatographic method comprises an isocratic elution and detection of analyte components using the run parameters below: […]

For `Nc1cc(C(Cl)=C(Cl)Cl)c(S(N)(=O)=O)cc1S(N)(=O)=O` [clorsulon, 4-amino-6-trichloroethenyl-1,3-benzene disulfonamide], the “Relative stability of the two active compounds” value [1] was “more stable”.
In the case of eprinomectin, the “Stabilization of eprinomectin in formulation” value [2] is reported as “stabilized by the addition of glycerol formal”.
